Measured values published in patent publication US11046672B2, “Indolinones compounds and their use in the treatment of fibrotic diseases” (RESPIVERT LIMITED, priority 2015, dated 2021).
Like-named read-outs stand apart in the source and are kept apart here.

Experiments:
[1] = Pharmacokinetic measurements in mice (intravenous and intra-nasal dosing); type: in vivo; conditions: mouse; for concentration at 6 h / concentration at 0.1 h / concentration at 1.5 h / concentration at 24 h: lung, read-out: lung concentration (nM) at time (h); for Kp at 6 h / Kp at 0.1 h / Kp at 1.5 h: lung/plasma
[2] = Pharmacokinetic measurements in rats (intravenous and intra-tracheal dosing); type: in vivo; conditions: rat; for concentration at 6 h / concentration at 0.1 h / concentration at 1.5 h / concentration at 24 h: lung, read-out: lung concentration (nM) at time (h); for Kp at 6 h / Kp at 0.1 h / Kp at 1.5 h / Kp at 24 h: lung/plasma
[3] = target: T1, PDGFRβ (Homo sapiens (Human), UniProt P09619); experiment: Duration of action (washout) against PDGF-BB induced phosphorylation of PDGFRβ in human fetal lung fibroblast cells; type: cell-based; conditions: MRC-5 cells, after wash-out, rhuPDGF-BB; experiments in Groups 1-4
T1 sequence (P09619 33-1106): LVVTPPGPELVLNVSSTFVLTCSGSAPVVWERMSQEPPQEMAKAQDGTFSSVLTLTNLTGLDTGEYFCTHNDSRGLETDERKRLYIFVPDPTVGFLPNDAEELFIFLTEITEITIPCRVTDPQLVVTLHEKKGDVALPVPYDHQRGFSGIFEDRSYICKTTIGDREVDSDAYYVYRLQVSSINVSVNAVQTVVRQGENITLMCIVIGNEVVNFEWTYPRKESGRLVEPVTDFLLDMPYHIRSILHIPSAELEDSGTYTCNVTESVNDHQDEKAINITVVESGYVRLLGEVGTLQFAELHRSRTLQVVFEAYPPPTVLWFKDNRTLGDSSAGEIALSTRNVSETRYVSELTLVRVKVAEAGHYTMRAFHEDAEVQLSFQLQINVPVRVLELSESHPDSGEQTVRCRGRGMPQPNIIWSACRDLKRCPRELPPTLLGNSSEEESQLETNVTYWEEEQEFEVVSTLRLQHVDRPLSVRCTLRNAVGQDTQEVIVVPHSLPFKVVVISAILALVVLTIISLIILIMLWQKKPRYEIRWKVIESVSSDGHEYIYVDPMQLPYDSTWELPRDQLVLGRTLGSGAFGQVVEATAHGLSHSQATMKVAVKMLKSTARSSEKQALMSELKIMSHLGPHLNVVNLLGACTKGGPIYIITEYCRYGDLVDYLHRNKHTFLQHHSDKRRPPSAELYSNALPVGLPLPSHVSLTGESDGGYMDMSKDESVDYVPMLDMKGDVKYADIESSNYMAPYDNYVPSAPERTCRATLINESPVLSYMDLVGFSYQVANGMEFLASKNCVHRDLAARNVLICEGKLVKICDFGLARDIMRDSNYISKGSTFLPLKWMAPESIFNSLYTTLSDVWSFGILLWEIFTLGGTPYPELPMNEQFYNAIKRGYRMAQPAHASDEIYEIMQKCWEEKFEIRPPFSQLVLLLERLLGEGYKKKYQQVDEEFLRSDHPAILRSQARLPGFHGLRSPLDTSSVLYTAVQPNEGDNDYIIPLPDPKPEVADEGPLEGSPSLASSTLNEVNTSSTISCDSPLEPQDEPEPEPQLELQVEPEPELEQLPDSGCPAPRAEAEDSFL

[4] = PAMPA permeability assay; type: in vitro ADME; conditions: PAMPA, donor and acceptor compartments
[5] = tested on: MRC5 cells; experiment: Cell viability assay in MRC5 cells (MTT)
[6] = target: T1, PDGFRβ; conditions: read-out: Ki PDGFRβ; mean, n = 2 unless otherwise indicated
[7] = target: T1, PDGFRβ; experiment: PDGF-BB induced phosphorylation of PDGFRβ in fibroblasts (MRC5 cells, HTRF); type: cell-based; conditions: MRC5 cells; n = 1 unless otherwise indicated; read-out: PDGFBB-induced PDGFRβ phosphorylation in MRC5 cells (IC50)

Molecule COC(=O)c1cc2c(cc1C)/C(=C(/Nc1ccc(C(=O)NOCCN(C)C)c(C)c1)c1ccccc1)C(=O)N2 [Example 5, (Z)-Methyl 3-(((4-((2-(dimethylamino)ethoxy)carbamoyl)-3-methylphenyl)amino)(phenyl)methylene)-5-methyl-2-oxoindoline-6-carboxylate] has a concentration at 6 h ([1]; male, C57BL/6J, iv, 0.2 mg/kg, i.v. dosing, 6 h, mean) of 306 nM, a concentration at 0.1 h ([1]; male, C57BL/6J, iv, i.v. dosing, 0.1 h, mean) of 868 nM and a concentration at 1.5 h ([1]; male, C57BL/6J, iv, i.v. dosing, 1.5 h, mean) of 416 nM. It also gave a concentration at 24 h ([1]; male, C57BL/6J, iv, i.v. dosing, 24 h, mean) of 20 nM, a concentration at 0.1 h ([1]; male, C57BL/6J, other: intra-nasal, i.n. dosing, 0.1 h, mean) of 3510 nM and a concentration at 1.5 h ([1]; male, C57BL/6J, other: intra-nasal, i.n. dosing, 1.5 h, mean) of 1730 nM. For the same molecule, the concentration at 6 h ([1]; male, C57BL/6J, other: intra-nasal, i.n. dosing, 6 h, mean) was 1320 nM, the concentration at 24 h ([1]; male, C57BL/6J, other: intra-nasal, i.n. dosing, 24 h, mean) was 363 nM and the Kp at 6 h ([1]; male, C57BL/6J, iv, 0.2 mg/kg, i.v. dosing, 6 h, read-out: lung/plasma ratio at time(h)) was 152. The Kp at 0.1 h ([1]; male, C57BL/6J, iv, i.v. dosing, 0.1 h, read-out: lung/plasma ratio at time(h)) was 13, the Kp at 1.5 h ([1]; male, C57BL/6J, iv, i.v. dosing, 1.5 h, read-out: lung/plasma ratio at time(h)) was 39 and the Kp at 0.1 h ([1]; male, C57BL/6J, other: intra-nasal, i.n. dosing, 0.1 h, read-out: lung/plasma conc ratio at time(h)) was 209. For the same molecule, the Kp at 1.5 h ([1]; male, C57BL/6J, other: intra-nasal, i.n. dosing, 1.5 h, read-out: lung/plasma conc ratio at time(h)) was 688, the Kp at 6 h ([1]; male, C57BL/6J, other: intra-nasal, i.n. dosing, 6 h, read-out: lung/plasma conc ratio at time(h)) was 1130 and the clearance ([1]; male, C57BL/6J, whole blood, iv) was 111 mL/min/kg. It also gave an MRT ([1]; male, C57BL/6J, whole blood, iv, i.v. dosing, mean) of 3.2 h, a Vd ([1]; male, C57BL/6J, whole blood, iv, i.v. dosing, mean, read-out: Vss) of 21 L/kg and a half-life ([1]; male, C57BL/6J, whole blood, iv, i.v. dosing, mean, read-out: t½ (converted)) of 2.6 h. For the same molecule, the “Lung conc i.n./i.v. Ratio at time (h)” value ([1]; 0.1 h) was 4.0, the “Lung conc i.n./i.v. Ratio at time (h)” value ([1]; 1.5 h) was 4.2 and the “Lung conc i.n./i.v. Ratio at time (h)” value ([1]; 6 h) was 4.3. For the same molecule, the “Lung conc i.n./i.v. Ratio at time (h)” value ([1]; 24 h) was 18.2, the “BAV (%)” value ([1]; i.n. dosing (i.n. dose 1 nintedanib, 0.2 examples), mean) was 14% and the “BAL % administered dose at time (h)” value ([1]; i.n. dosing, 0.1 h) was 1%. The “BAL % administered dose at time (h)” value ([1]; i.n. dosing, 1.5 h) was 0.1%, the “BAL % administered dose at time (h)” value ([1]; i.n. dosing, 6 h) was 0.3% and the “BAL % administered dose at time (h)” value ([1]; i.n. dosing, 24 h) was 0.1%. For the same molecule, the “BAL % administered dose at time (h)” value ([1]; i.v. dosing, 0.1 h) was 0.07%, the “BAL % administered dose at time (h)” value ([1]; i.v. dosing, 1.5 h) was 0.02% and the “BAL % administered dose at time (h)” value ([1]; i.v. dosing, 6 h) was 0.01%. The “BAL % administered dose at time (h)” value ([1]; i.v. dosing, 24 h) was 0.02%, the “BAV (%)” value ([1]; oral dosing (oral dose 60 mg/kg nintedanib, 10 mg/kg examples), mean) was 13% and the concentration at 6 h ([2]; male, CD, iv, 0.1 mg/kg, i.v. dosing, 6 h) was 92 nM. For the same molecule, the concentration at 0.1 h ([2]; male, CD, iv, i.v. dosing, 0.1 h) was 475 nM, the concentration at 1.5 h ([2]; male, CD, iv, i.v. dosing, 1.5 h) was 251 nM and the concentration at 24 h ([2]; male, CD, iv, i.v. dosing, 24 h) was 52 nM. For the same molecule, the concentration at 0.1 h ([2]; male, CD, other: intra-tracheal, i.t. dosing, 0.1 h) was 3590 nM, the concentration at 1.5 h ([2]; male, CD, other: intra-tracheal, i.t. dosing, 1.5 h) was 1710 nM and the concentration at 6 h ([2]; male, CD, other: intra-tracheal, i.t. dosing, 6 h) was 629 nM. For the same molecule, the concentration at 24 h ([2]; male, CD, other: intra-tracheal, i.t. dosing, 24 h) was 747 nM, the Kp at 6 h ([2]; male, CD, iv, 0.1 mg/kg, i.v. dosing, 6 h, read-out: lung/plasma ratio at time(h)) was 26 and the Kp at 0.1 h ([2]; male, CD, iv, i.v. dosing, 0.1 h, read-out: lung/plasma ratio at time(h)) was 24. For the same molecule, the Kp at 1.5 h ([2]; male, CD, iv, i.v. dosing, 1.5 h, read-out: lung/plasma ratio at time(h)) was 36, the Kp at 24 h ([2]; male, CD, iv, i.v. dosing, 24 h, read-out: lung/plasma ratio at time(h)) was 98 and the Kp at 0.1 h ([2]; male, CD, other: intra-tracheal, i.t. dosing, 0.1 h, read-out: lung/plasma conc ratio at time(h)) was 74. It also gave a Kp at 1.5 h ([2]; male, CD, other: intra-tracheal, i.t. dosing, 1.5 h, read-out: lung/plasma conc ratio at time(h)) of 362, a Kp at 6 h ([2]; male, CD, other: intra-tracheal, i.t. dosing, 6 h, read-out: lung/plasma conc ratio at time(h)) of 461 and a Kp at 24 h ([2]; male, CD, other: intra-tracheal, i.t. dosing, 24 h, read-out: lung/plasma conc ratio at time(h)) of 1520. The MRT ([2]; male, CD, plasma, iv, i.v. dosing) was 8 h, the clearance ([2]; male, CD, plasma, iv, i.v. dosing (i.v. dose 0.1-0.5 per compound)) was 48 mL/min/kg and the Vd ([2]; male, CD, plasma, iv, i.v. dosing, read-out: Vss) was 23 L/kg. For the same molecule, the half-life ([2]; male, CD, plasma, iv, i.v. dosing, read-out: t½ (converted)) was 7.6 h, the “Lung conc i.t./i.v. Ratio at time (h)” value ([2]; 0.1 h) was 7.6 and the “Lung conc i.t./i.v. Ratio at time (h)” value ([2]; 1.5 h) was 6.8. For the same molecule, the “Lung conc i.t./i.v. Ratio at time (h)” value ([2]; 6 h) was 6.8, the “Lung conc i.t./i.v. Ratio at time (h)” value ([2]; 24 h) was 14.4 and the “i.t. BAV (%)” value ([2]; i.t. dosing (i.t. dose 0.1-0.5 per compound)) was 70%. For the same molecule, the “BAL % administered dose at time (h)” value ([2]; i.t. dosing, 0.1 h) was 3.1%, the “BAL % administered dose at time (h)” value ([2]; i.t. dosing, 1.5 h) was 0.6% and the “BAL % administered dose at time (h)” value ([2]; i.t. dosing, 6 h) was 0.3%. For the same molecule, the “BAL % administered dose at time (h)” value ([2]; i.t. dosing, 24 h) was 0.2%, the “BAL % administered dose at time (h)” value ([2]; i.v. dosing, 0.1 h) was 0.04% and the “BAL % administered dose at time (h)” value ([2]; i.v. dosing, 1.5 h) was 0.01%. For the same molecule, the “BAL % administered dose at time (h)” value ([2]; i.v. dosing, 6 h) was 0.01%, the “BAL % administered dose at time (h)” value ([2]; i.v. dosing, 24 h) was 0.01% and the “Oral BAV (%)” value ([2]; oral dose 3 mg/kg) was 4%. The “% phos: percentage phosphorylation after wash-out relative to maximal phosphorylation (100%)” value [3] was 37.3%, the “% Recovery” value [4] was 60.9% and the recovery at 5 hr, 10 μM ([4]; pH 7, PAMPA) was 50.4%. For the same molecule, the “Cell viability at 100 nM (%)” value ([5]; 100 nM) was 100.6%, the “Cell viability at 300 nM (%)” value ([5]; 300 nM) was 92.5% and the “Cell viability at 1000 nM (%)” value ([5]; 1000 nM) was 71.5%. For the same molecule, the Ki [6] was 7.13 nM and the IC50 [7] was 7.74 nM.
